# Test results published in EP4650002A1 (Ludwig-Maximilians-Universität, priority 2024, dated 2025).
# Target: T1, human TLX (Homo sapiens, UniProt Q9Y466)
# T1 construct: expressed in transfected cells; host or cells: HEK293T
# Experiment: Gal4 hybrid reporter gene assay (TLX modulation)
# Assay type: cell-based
# Parameters: key to relative reporter activity: fraction of DMSO control (DMSO = 1)
# Settings: for EC50: Gal4-TLX hybrid reporter in HEK293T cells, 16 h incubation; for relative reporter activity: DMSO control = 1
# Description: In the Tables, the TLX relative reporter activity is expressed as EC50 (in µM) for each listed compound. "EC50" refers to a measure of the concentration of a compound which induces a biological response halfway between the baseline and maximum after a specified exposure time. […] The EC50 is measured via a hybrid reporter gene assay, employing the transfection of a reporter (firefly luciferase with Gal4 response element), a control gene (Renilla luciferase), a transcriptional activator (Gal4-VP16) and a hybrid receptor consisting of the TLX ligand binding domain (LBD) and the Gal4 DNA binding domain (DBD).
# Hybrid reporter gene assays. […] After 24 h, medium was changed to Opti-MEM without supplements and cells were transiently transfected using Lipofectamine LTX reagent (Invitrogen, Carlsbad, CA, USA) according to the manufacturer's protocol. Five hours after transfection, cells were incubated with the test compounds in Opti-MEM supplemented with penicillin (100 U/mL), streptomycin (100 µg/mL) and 0.1% DMSO for 16 h before luciferase activity was measured using the Dual-Glo Luciferase Assay System (Promega) according to the manufacturer's protocol on a Tecan Spark luminometer (Tecan Deutschland GmbH, Crailsheim, Germany). Firefly luminescence was divided by Renilla luminescence and multiplied by 1000 resulting in relative light units (RLU) to normalize for transfection efficiency and cell growth. Fold activation was obtained by dividing the mean RLU of test compound by the mean RLU of the untreated control. All samples were tested in at least three biologically independent experiments in duplicates. For dose-response curve fitting and calculation of EC50 values, the equation "[Agonist] vs. response -- Variable slope (four parameters)" was used in GraphPad Prism (version 7.00, GraphPad Software, La Jolla, CA, USA).
# [1] = minimal remaining or maximum reporter activity after treatment, in brackets below the EC50, <1 agonism, >1 inverse agonism
# T1 sequence (Q9Y466 155-383 limits assumed): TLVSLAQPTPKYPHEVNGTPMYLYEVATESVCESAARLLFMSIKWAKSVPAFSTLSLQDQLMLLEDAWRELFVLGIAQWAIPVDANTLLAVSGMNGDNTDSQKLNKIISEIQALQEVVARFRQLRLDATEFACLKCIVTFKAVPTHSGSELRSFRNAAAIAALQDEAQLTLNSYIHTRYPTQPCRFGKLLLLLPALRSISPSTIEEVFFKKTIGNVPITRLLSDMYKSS
Structure (SMILES),EC50 [µM],relative reporter activity [1],further results
"CC(=O)c1cc(-c2cc(N)cc(C(F)(F)F)c2)cs1 [compound 60, 1-(4-(3-amino-5-(trifluoromethyl)phenyl)thiophen-2-yl)ethan-1-one]",0.7 ± 0.3,0.24±0.07,
"CC(=O)c1cc(-c2cc(NC(=O)c3ccnc4ccccc34)cc(C(F)(F)F)c2)cs1 [compound 61, N-(3-(5-acetylthiophen-3-yl)-5-(trifluoromethyl)phenyl)quinoline-4-carboxamide]",1.1 ± 0.3,0.17±0.08,
"CC(=O)c1cc(-c2cc(NC(=O)Cc3ccccc3Cl)cc(C(F)(F)F)c2)cs1 [compound 62, N-(3-(5-acetylthiophen-3-yl)-5-(trifluoromethyl)phenyl)-2-(2-chlorophenyl)-acetamide]",0.36 ± 0.09,0.27±0.03,
"Nc1cc(-c2cscn2)cc(C(F)(F)F)c1 [compound 63, 3-(thiazol-4-yl)-5-(trifluoromethyl)aniline]",11 ± 3,0.58±0.10,
"Cc1nc(-c2cc(N)cc(C(F)(F)F)c2)cs1 [compound 64, 3-(2-methylthiazol-4-yl)-5-(trifluoromethyl)aniline]",,,relative reporter activity (at 120 µM): (0.67±0.06 at 120 µM)
"CC(=O)c1nc(-c2cc(N)cc(C(F)(F)F)c2)cs1 [compound 65, 1-(4-(3-Amino-5-(trifluoromethyl)phenyl)thiazol-2-yl)ethan-1-one]",,0.26±0.05,
"Nc1cc(-c2cncnc2)cc(C(F)(F)F)c1 [compound 66, 3-(pyrimidin-5-yl)-5-(trifluoromethyl)aniline]",2.1 ± 0.5,0.40±0.06,
"Cc1ccc(-c2cc(N)cc(C(F)(F)F)c2)cc1 [compound 67, 4'-methyl-5-(trifluoromethyl)-[1, 1 '-biphenyl]-3-amine]",,,relative reporter activity (at 30 µM): inactive at 30 µM
"Cc1ncc(-c2cc(N)cc(C(F)(F)F)c2)cn1 [compound 68, 3-(2-methylpyrimidin-5-yl)-5-(trifluoromethyl)aniline]",15 ± 6,0.34±0.09,
"Cc1cc(-c2cc(N)cc(C(F)(F)F)c2)cnc1C [compound 69, 3-(5,6-dimethylpyridin-3-yl)-5-(trifluoromethyl)aniline]",6.3 ± 2.1,,
"CC(=O)c1cncc(-c2cc(N)cc(C(F)(F)F)c2)c1 [compound 70, 1-(5-(3-amino-5-(trifluoromethyl)phenyl)pyridin-3-yl)ethan-1-one]",4.6 ± 2.4,,
"Cc1cccc(-c2cc(N)cc(C(F)(F)F)c2)c1 [compound 72, 3'-methyl-5-(trifluoromethyl)-[1,1'-biphenyl]-3-amine]",,,relative reporter activity (at 30 µM): inactive at 30 µM
"Nc1cc(-c2ccncc2)cc(C(F)(F)F)c1 [compound 73, 3-(pyridin-4-yl)-5-(trifluoromethyl)aniline]",13 ± 4,0.18±0.13,
"Cc1cc(-c2cc(N)cc(C(F)(F)F)c2)ccn1 [compound 74, 3-(2-methylpyridin-4-yl)-5-(trifluoromethyl)aniline]",6.6 ± 2.1,,
"Cc1cc(-c2cc(NC(=O)c3ccnc4ccccc34)cc(C(F)(F)F)c2)ccn1 [compound 75, N-(3-(2-methylpyridin-4-yl)-5-(trifluoromethyl)phenyl)quinoline-4-carboxamide]",0.41 ± 0.11,0.26±0.05,
"Cc1cc(-c2cc(NC(=O)Cc3ccccc3)cc(C(F)(F)F)c2)ccn1 [compound 76, N-(3-(2-methylpyridin-4-yl)-5-(trifluoromethyl)phenyl)-2-phenylacetamide]",0.3 ± 0.07,0.12±0.06,
"Cc1cc(-c2cc(NC(=O)c3ccc(Cl)c(Cl)c3)cc(C(F)(F)F)c2)ccn1 [compound 78, 3,4-dichloro-N-(3-(2-methylpyridin-4-yl)-5-(trifluoromethyl)phenyl)benzamide]",0.6 ± 0.2,0.51±0.5,
"CC(=O)Nc1cc(-c2ccnc(C)c2)cc(C(F)(F)F)c1 [compound 79, N-(3-(2-methylpyridin-4-yl)-5-(trifluoromethyl)phenyl)acetamide]",2.6 ± 0.4,0.18±0.06,
"Cc1cc(-c2cc(NC(=O)c3ccc4ccccc4c3)cc(C(F)(F)F)c2)ccn1 [compound 80, N-(3-(2-methylpyridin-4-yl)-5-(trifluoromethyl)phenyl)-2-naphthamide]",0.97 ± 0.22,0.29±0.06,
"Cc1cc(-c2cc(NC(=O)c3cc4ccccc4s3)cc(C(F)(F)F)c2)ccn1 [compound 81, N-(3-(2-methylpyridin-4-yl)-5-(trifluoromethyl)phenyl)benzo[b]thiophene-2-carboxamide]",1.2 ± 0.2,0.39±0.05,
"Cc1cc(-c2cc(NC(=O)C3CCC3)cc(C(F)(F)F)c2)ccn1 [compound 82, N-(3-(2-methylpyridin-4-yl)-5-(trifluoromethyl)phenyl)cyclobutanecarboxamide]",0.6 ± 0.2,0.17±0.09,
"C=C(C(=O)Nc1cc(-c2ccnc(C)c2)cc(C(F)(F)F)c1)c1ccc2cc(OC)ccc2c1 [compound 83, 2-(6-methoxynaphthalen-2-yl)-N-(3-(2-methylpyridin-4-yl)-5-(trifluoromethyl)-phenyl)propenamide]",,,relative reporter activity (at 10 µM): (0.66±0.07 at 10 µM)
"Cc1cc(-c2cc(NC(=O)C(O)(c3ccccc3)C3CCCC3)cc(C(F)(F)F)c2)ccn1 (centres unmarked) [compound 84, 2-cyclopentyl-2-hydroxy-N-(3-(2-methylpyridin-4-yl)-5-(trifluoromethyl)phenyl)-2-phenylacetamide]",,,relative reporter activity (at 3 µM): (0.26±0.05 at 3 µM)
"Cc1cc(-c2cc(NC(=O)C3CCCNC3)cc(C(F)(F)F)c2)ccn1 (centres unmarked) [compound 85, N-(3-(2-methylpyridin-4-yl)-5-(trifluoromethyl)phenyl)piperidine-3-carboxamide]",,,relative reporter activity (at 20 µM): (0.15±0.01 at 20 µM)
"Nc1cc(-c2ccc3occc3c2)cc(C(F)(F)F)c1 [compound 91, 3-(benzofuran-5-yl)-5-(trifluoromethyl)aniline]",,,relative reporter activity (at 10 µM): (0.84±0.06 at 10 µM)
"Nc1cc(-c2ccc3sccc3c2)cc(C(F)(F)F)c1 [compound 92, 3-(benzo[b]thiophen-5-yl)-5-(trifluoromethyl)aniline]",,,relative reporter activity (at 10 µM): inactive at 10 µM
"Nc1cc(-c2ccc3[nH]ccc3c2)cc(C(F)(F)F)c1 [compound 93, 3-(1H-indol-5-yl)-5-(trifluoromethyl)aniline]",1.4 ± 0.4,,
"CN(C)c1ccc(-c2cc(N)cc(C(F)(F)F)c2)cc1 [compound 95, N4',N4'-dimethyl-5-(trifluoromethyl)-[1,1'-biphenyl]-3,4'-diamine]",,,relative reporter activity (at 20 µM): (0.41±0.11 at 20 µM)
"Nc1cc(-c2cccc3[nH]ccc23)cc(C(F)(F)F)c1 [compound 99, 3-(1H-Indol-4-yl)-5-(trifluoromethyl)aniline]",3 ± 0.2,,

# Now from value to compound, other results behind:
EC50 [µM],relative reporter activity [1],Structure (SMILES),further results
3.3 ± 0.7,0.32±0.03,"Cc1cc(-c2cc(NC(=O)c3cc(C)[nH]n3)cc(C(F)(F)F)c2)ccn1 [compound 86, 5-methyl-N-(3-(2-methylpyridin-4-yl)-5-(trifluoromethyl)phenyl)-1H-pyrazole-3-carboxamide]",
4.6 ± 2.1,0.30±0.05,"CC(=O)c1cc(-c2cc(N)cc(C(F)(F)F)c2)ccn1 [compound 87, 1-(4-(3-amino-5-(trifluoromethyl)phenyl)pyridin-2-yl)ethan-1-one]",
1.6 ± 0.8,,"Cc1cc(-c2cc(N)cc(C(F)(F)F)c2)cc(C)n1 [compound 88, 3-(2,6-dimethylpyridin-4-yl)-5-(trifluoromethyl)aniline]",
1.1 ± 0.1,,"Cn1ccc2cc(-c3cc(N)cc(C(F)(F)F)c3)ccc21 [compound 90, 3-(1-methyl-1H-indol-5-yl)-5-(trifluoromethyl)aniline]",
3.7 ± 0.6,,"Nc1cc(-c2ccn3ccnc3c2)cc(C(F)(F)F)c1 [compound 94, 3-(imidazo[1,2-a]pyridin-7-yl)-5-(trifluoromethyl)aniline]",
2.3 ± 0.7,,"Nc1cc(-c2ccc3c(c2)CCN3)cc(C(F)(F)F)c1 [compound 96, 3-(indolin-5-yl)-5-(trifluoromethyl)aniline]",
1.6 ± 0.9,,"Cn1ncc2cc(-c3cc(N)cc(C(F)(F)F)c3)ccc21 [compound 97, 3-(1-methyl-1H-indazol-5-yl)-5-(trifluoromethyl)aniline]",
0.4 ± 0.07,0.29±0.03,"Cn1ccc2cc(-c3cc(N)cc(C(F)(F)F)c3)cnc21 [compound 98, 3-(1-methyl-1H-pyrrolo[2,3-b]pyridin-5-yl)-5-(trifluoromethyl)aniline]",
18 ± 1,,"Cn1ccc2c(-c3cc(N)cc(C(F)(F)F)c3)cccc21 [compound 100, 3-(1-Methyl-1H-indol-4-yl)-5-(trifluoromethyl)aniline]",relative reporter activity (at 10 µM): 0.55±0.06
